Among the data in US6831199B1, “Pyrimidine compounds and derivatives thereof” (G. D. Searle & Co., priority 1995, dated 2004) are IC50 values, retold here.

The target in experiment [1] is T1, Human fibrinogen receptor (αIIbβ3) (Homo sapiens, UniProt P05106+P08514).
T1 construct: Human fibrinogen receptor (αIIbβ3) was purified from outdated platelets; from tissue; host or cells: outdated human platelets
Briefly: Purified IIb/IIIa receptor assay (solid phase receptor assay, competition with biotinylated vitronectin). In kind it is binding. As to conditions: read-out: IIb/IIIa IC50. In short, it runs like this:
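Competition format: 1 nM biotinylated vitronectin plus test compound (highest 1.0×10^−4 M), 2 h at room temperature on wells coated with platelet-derived αIIbβ3. Buffer was TBS containing 1.0 mM Ca, Mg, Mn, pH 7.4. HRP anti-biotin readout at 450 nm; normalized to maximum binding, four-parameter curve fit.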

Experiment [2] deals with T2, Human vitronectin receptor (αvβ3) (Homo sapiens, UniProt P05106+P06756).
T2 construct: Human vitronectin receptor (αvβ3) was purified from human placenta; from tissue; host or cells: human placenta
The experiment is described as follows: Vitronectin adhesion assay (solid phase receptor assay, competition with biotinylated vitronectin). In kind it is binding. The note with it: read-out: AvB3 IC50. In short, it runs like this: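 Purified human αvβ3 coated overnight at 4 °C in TBS with 1.0 mM Ca++, Mg++, Mn++, pH 7.4; compounds (top final 1.0×10^−4 M) competed with 1 nM biotinylated vitronectin for 2 h at room temperature. Bound ligand detected by HRP anti-biotin/OPD at A450; values normalized to no-competitor controls, four-parameter curve fit.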

Molecules are shown by their SMILES. pIC50: −log10 of the molar value. Where a name gives a salt, the structure may show the parent alone. Some results are limits rather than exact numbers.

Regarding `CNC(=NC#N)Nc1cccc(C(=O)NCC(=O)NC(CC(=O)O)c2cc(Cl)cc(Cl)c2)c1` (racemic) [Example 198, (±)3,5-dichloro-β-[[2-[[[3-[(cyanoimino)(methylamino)methyl]amino]phenyl]carbonyl]amino]acetyl]amino]benzenepropanoic acid], the figures for the pIC50 in experiment [1] and in experiment [2] were 4.42 and 6.94, respectively.
In the same order, the values of `O=C(O)CC(NC(=O)CNC(=O)c1cccc(NC2=NCCN2)c1)c1cc(Cl)cc(Cl)c1O` (racemic) [Example 238, trifluoroacetate salt, monohydrate] are 6.19 and 9.04.
Take `N=C(N)Nc1cccc(C(=O)NCC(=O)NC(CC(=O)O)c2ccc(Br)s2)c1` (stereo not drawn) [Example 366, β-[[2-[[[3-[(aminoiminomethyl)amino]phenyl]carbonyl]amino]acetyl]amino]-5-bromothiophene-2-propanoic acid, trifluoroacetate salt, monohydrate]: the pIC50 is 7.04 in experiment [1] and 9.36 in experiment [2].
The corresponding values for `O=C(O)CC(NC(=O)CNC(=O)c1cccc(NC2=NCCS2)c1)c1cccnc1` (stereo not drawn) [Example 101, β-[[2-[[[3-[(4,5-dihydrothiazol-2-yl)amino]phenyl]carbonyl]amino]acetyl]amino]pyridine-3-propanoic acid, trifluoroacetate salt] are 4.18 and 5.77.
Take `N#C/N=C(/N)Nc1cccc(C(=O)NCC(=O)NC(CC(=O)O)c2cc(Cl)cc(Cl)c2)c1` (stereo not drawn) [Example 160, β-[[2-[[[3-[[amino(cyanoimino)methyl]amino]phenyl]carbonyl]amino]acetyl]amino]-3,5-dichlorobenzenepropanoic acid]: the pIC50 was 4.98 in experiment [1] and 7.59 in experiment [2].
In the same order, the values of `CC(C)C(CC(=O)O)NC(=O)CNC(=O)c1cccc(NC(=N)N)c1` (centres unmarked) [Example 263, 3-[[2-[[[3-[(aminoiminomethyl)amino]phenyl]carbonyl]amino]acetyl]amino]-4-methylpentanoic acid, trifluoroacetate salt] are 5.56 and 8.38.
In the same order, the values of `N=C(N)Nc1cccc(C(=O)NCC(=O)NC(CC(=O)O)c2cccc(Cl)c2)c1` (racemic) [Example 183, (±)β-[[2-[[[3-[(aminoiminomethyl)amino]phenyl]carbonyl]amino]acetyl]amino]-3-chlorobenzenepropanoic acid, trifluoroacetate salt] are 6.59 and 8.80.
For `CC1(C)CN=C(Nc2cccc(C(=O)NCC(=O)NC(CC(=O)O)c3cc(Cl)cc(Cl)c3)c2)NC1` (racemic) [Example 367, (±)3,5-dichloro-β-[[2-[[[3-[(1,4,5,6-tetrahydro-5,5-dimethylpyrimidin-2-yl)amino]phenyl]carbonyl]amino]acetyl]amino]benzenepropanoic acid, trifluoroacetate salt], the pIC50 in experiment [1] is 5.81; in experiment [2], 9.46.
Take `CCOC(=O)CC(NC(=O)CNC(=O)c1cccc(N/C(=N/C#N)NCc2ccccn2)c1)c1ccccc1` (stereo not drawn) [Example 143, ethyl β-[[2-[[[3-[[(cyanoimino)[2-pyridinylmethyl)amino]methyl]amino]phenyl]carbonyl]amino]acetyl]amino]benzenepropanoate, trifluoroacetate salt]: the pIC50 in experiment [1] is less than 4.00; in experiment [2], 5.17.
In the same order, the values of `N=C(N)Nc1ccc(O)c(C(=O)NCC(=O)NC(CC(=O)O)c2cc(Cl)cc(Cl)c2)c1` (stereo not drawn) [Example 279, β-[[2-[[[5-[(aminoiminomethyl)amino]-2-hydroxyphenyl]carbonyl]amino]acetyl]amino]-3,5-dichlorobenzenepropanoic acid, trifluoroacetate salt] are 6.20 and 8.15.
